Results taken from PMC12856912, “Structure-Guided Semisynthesis of Blasticidin S–Amicetin Chimeras as Selective Ribosome Inhibitors” (Journal of the American Chemical Society, 2026).
Converted amounts (≈) assume the structure as drawn.

Columns and labels:
[1] = Cytotoxicity assay (MTS/PMS); assay type: cell-based; details: monkey, Vero cells (monkey kidney epithelial cells); 24 h treatment, MTS/PMS, average of three biological replicates; read-out: CC50 against Vero cells
Experimental: The potential cytotoxic eff ect of the test compounds was investigated using Vero cells (monkey kidney epitheli al cells) following est ablished protocols.3 Briefly, Vero cells were plated into 96-well plates supplemented with Dulbecco's Modified Eagle Medium (DMEM) containing 10% fetal bovine serum (FBS). The cells were placed in a humidified 37 °C environment for incubation with 5% CO₂ for 24 h to allow proper adherence and growth. Following the incubation period, the culture medium was replaced with fresh DMEM containing serial dilutions of the test compounds, while the v ehicle alon e w as used as a negative control. The treated cells were incubated for an additional 24 h. To assess cell viability, the MTS/PMS reagent was added to each well and incubat ed for 4 h. A microplate reader (S ynergy H1, BioTek, USA) was used to m easure absorbance at 490 nm. Al l experiments wer e cond ucted usingthree biologi cal replicates .
Ta b l e S2. CC50 valuesa (µg/mL) against Vero cells […]
aValues at which the cell viability (normalized to vehicle control) was 50%. […]

[2] = tested on: Methicillin resistant S. aureus (MRSA) USA300; experiment: Antibacterial MIC assay, serial dilution; assay type: cell-based, Staphylococcus aureus; details: for Selectivity index (CC50/MIC) MRSA USA300: CC50 Vero cells / MIC; for MIC: Staphylococcus aureus, read-out: MIC Methicillin resistant S. aureus (MRSA) USA300
S. aureus ΔNorA = experiment: Antibacterial MIC assay, serial dilution; assay type: cell-based, Staphylococcus aureus; details: for Selectivity index (CC50/MIC) S. aureus ΔNorA: CC50 Vero cells / MIC; for MIC: Staphylococcus aureus, read-out: MIC S. aureus ∆NorA
Experimental: (§1) Media and solutions were autoclaved or sterile filtered prior to use and mani pulations were carri ed out in a laminar flow hood. Antibacterial t esting was performed in polypropylene 96-well flat bottom plates. The minimal inhibitory concentration of blasticidin S (1) hydrochloride, methyl ester (3) trihydrochloride, P10 (2) tri-T FA , phenet hyl amide (4) tri -T FA , an d blastimidines M 19– 22, A, 29–32, P 37–40, and C 43–46 (salt forms as described in the te xt) were assessed against Staphylococcus aureus ΔNorA, S. aureus ATCC 6538P, methicillin-resistant S. aureus (MRSA) ATCC 43300, Enterococcus faecalis ATCC 29212, vancomycin- resistant Enterococcus, Klebsiella pneumoniae ATCC 29665, Pseudomonas aeruginosa,and Acinetobacter baumannii ATCC 17978 using serial dilutions. Doxycycline (Gold Bio) as a positive control and the vehicle as a negative control. Stock solutions of each compound were prepared at 2.56 mg/mL in 50% DMSO/water and serially diluted in 50% DMSO/water to create master plates. From the master plates, 10 μ L o f each dilution was applied to test plates using a Bravo automated liquid transfer system (Agilent).
(§2) Bacteria previously grown overnight (37 °C, 120–200 RPM), in LB broth were diluted to an OD600 of 0.05 in cation-adjusted Mueller-Hinton broth (CAMHB), grown to an OD600 of ~0.5, and diluted to an OD600 of 0.004 in CAMHB . These diluted cultures were applied to the test plates (190 μL per test well) resulting in final concentrations of the test compounds of 128–1 μg/ m L.
(§3) Growth controls (wells with inoculated media but no vehicle or test compounds) were included to assess any potential toxicity from the vehicle. Th e plates were in cubated at 37 °C for 16–18 h, except fo r VRE and E. faecalis, which w ere in cub ated at 37 °C fo r 24 h. Inh ibition was determined by measuring the optical density at 600 nm (OD60 0) with a Cytation 3 pl ate read er (BioTek). The optical density measurem ents were no rmalized to the positive and negative controls and the vehicle and growth controls were compared and found to b e indistinguishable, indicating no toxicity from […]
(§4) the vehicle used. The MIC was the lowest concentration that inhibited >90% of growth. Two biological replicates were performed in duplicate. MIC values are reported as a range from […]

S. aureus ATCC 6538P = experiment: Antibacterial MIC assay, serial dilution; assay type: cell-based, Staphylococcus aureus; details: for Selectivity index (CC50/MIC) S. aureus 6538P: CC50 Vero cells / MIC; for MIC: Staphylococcus aureus, ATCC 6538P / ATCC 6539P, read-out: MIC S. aureus ATCC 6539P
Experimental: as §1, §2, §3, §4

MRSA ATCC 43300 = experiment: Antibacterial MIC assay, serial dilution; assay type: cell-based, Staphylococcus aureus; details: for Selectivity index (CC50/MIC) MRSA 43300: CC50 Vero cells / MIC; for MIC: Staphylococcus aureus, read-out: MIC MRSA ATCC 43300
Experimental: as §1, §2, §3, §4

[3] = tested on: Methicillin resistant Staphylococcus epidermidis (MRSE) ATCC 35984 NRS101; experiment: Antibacterial MIC assay, serial dilution; assay type: cell-based; details: for Selectivity index (CC50/MIC) MRSE 35984: CC50 Vero cells / MIC; for MIC: Staphylococcus epidermidis, read-out: MIC Methicillin resistant Staphylococcus epidermidis (MRSE) ATCC 35984 NRS101
[4] = tested on: Vancomycin resistant Enterococcus faecium NR-31909 (VRE); experiment: Antibacterial MIC assay, serial dilution; assay type: cell-based; details: for MIC: Enterococcus faecium, VRE, 24 h, read-out: MIC Vancomycin resistant Enterococcus faecium NR-31909 (VRE); for Selectivity index (CC50/MIC) VRE NR-31909: CC50 Vero cells / MIC
Experimental: as §1, §2, §3, §4

[5] = tested on: Klebsiella pneumoniae ATCC 29665; experiment: Antibacterial MIC assay, serial dilution; assay type: cell-based; details: for MIC: Klebsiella pneumoniae, ATCC29665, range from biological replicates, read-out: MIC K. pneumoniae ATCC-29665
Experimental: as §1, §2, §3, §4

[6] = tested on: Enterococcus faecalis ATCC 29212; experiment: Antibacterial MIC assay, serial dilution; assay type: cell-based; details: for Selectivity index (CC50/MIC) E. faecalis 29212: CC50 Vero cells / MIC; for MIC: Enterococcus faecalis, ATCC 29112 / ATCC 29212, 24 h, read-out: MIC E. faecalis ATCC 29112
Experimental: as §1, §2, §3, §4

[7] = tested on: Acinetobacter baumannii ATCC 17978; experiment: Antibacterial MIC assay, serial dilution; assay type: cell-based; details: ATCC17978, range from biological replicates
Experimental: as §1, §2, §3, §4

Pseudomonas aeruginosa = experiment: Antibacterial MIC assay, serial dilution; assay type: cell-based; details: for Selectivity index (CC50/MIC) P. aeruginosa: CC50 Vero cells / MIC; for MIC: Pseudomonas aeruginosa, range from biological replicates, read-out: MIC P. aeruginosa
Experimental: as §1, §2, §3, §4

[8] = tested on: Escherichia coli BAA-2452; experiment: Antibacterial MIC assay, serial dilution; assay type: cell-based; details: BAA2452, read-out: MIC Escherichia coli BAA-2452
[9] = tested on: Vancomycin resistant E. faecalis NR-31972 (VRE); experiment: Antibacterial MIC assay, serial dilution; assay type: cell-based, Enterococcus faecalis; details: for Selectivity index (CC50/MIC) VRE NR-31972: CC50 Vero cells / MIC; for MIC: Enterococcus faecalis, VRE, 24 h, read-out: MIC Vancomycin resistant E. faecalis NR-31972 (VRE)
Experimental: as §1, §2, §3, §4

Row | SMILES | CC50 at 24 h [1] | Selectivity index (CC50/MIC) MRSA USA300 [2] | MIC [2] | Selectivity index (CC50/MIC) S. aureus ΔNorA (S. aureus ΔNorA) | MIC (S. aureus ΔNorA) | Selectivity index (CC50/MIC) S. aureus 6538P (S. aureus ATCC 6538P) | MIC (S. aureus ATCC 6538P) | Selectivity index (CC50/MIC) MRSA 43300 (MRSA ATCC 43300) | MIC (MRSA ATCC 43300) | Selectivity index (CC50/MIC) MRSE 35984 [3] | MIC [3] | MIC [4] | MIC [5] | Selectivity index (CC50/MIC) E. faecalis 29212 [6] | MIC [6] | MIC [7] | Selectivity index (CC50/MIC) P. aeruginosa (Pseudomonas aeruginosa) | MIC (Pseudomonas aeruginosa) | MIC [8] | Selectivity index (CC50/MIC) VRE NR-31972 [9] | also measured
1 | CC(=O)Nc1ccc(C(=O)Nc2ccn([C@H]3C=C[C@H](NC(=O)C[C@@H](N)CCN(C)C(=N)N)[C@@H](C(=O)NCCc4ccccc4)O3)c(=O)n2)cc1 [Blastimidine P4] | > 256 µg/mL | >4.0 | 64 µg/mL (≈ 93.2 µM) | >24 | 8 to 16 µg/mL (≈ 11.6 to 23.3 µM) | >8.0 | 32 µg/mL (≈ 46.6 µM) | >2.0 | 128 µg/mL (≈ 186 µM) | >16 | 16 µg/mL (≈ 23.3 µM) | > 128 µg/mL | > 128 µg/mL | >8.0 | 32 µg/mL (≈ 46.6 µM) | > 128 µg/mL | >2.0 | 128 µg/mL (≈ 186 µM) | > 128 µg/mL | >8.0 | MIC [9]: 32 µg/mL (≈ 46.6 µM)
2 | CC(=O)Nc1ccc(C(=O)Nc2ccn([C@H]3C=C[C@H](NC(=O)C[C@@H](N)CCN(C)C(=N)N)[C@@H](C(N)=O)O3)c(=O)n2)cc1 [Blastimidine A4] | 68 µg/mL (≈ 117 µM) | 1.1 | 64 µg/mL (≈ 110 µM) | 1.1 | 64 µg/mL (≈ 110 µM) | 1.1 | 64 µg/mL (≈ 110 µM) | 1.1 | 64 µg/mL (≈ 110 µM) | 1.1 | 64 µg/mL (≈ 110 µM) | 32 µg/mL (≈ 54.9 µM) | 16 to 32 µg/mL (≈ 27.5 to 54.9 µM) | 2.1 | 32 µg/mL (≈ 54.9 µM) | > 128 µg/mL | <0.5 | > 128 µg/mL | 32 µg/mL (≈ 54.9 µM) | 1.1 | Selectivity index (CC50/MIC) VRE NR-31909 [4]: 2.1; Selectivity index (CC50/MIC) K. pneumoniae ([5]; CC50 Vero cells / MIC): 3.2; MIC [9]: 64 µg/mL (≈ 110 µM)
3 | CN(CC[C@H](N)CC(=O)N[C@H]1C=C[C@H](n2ccc(NC(=O)c3ccc(N)cc3)nc2=O)O[C@@H]1C(=O)NCCc1ccccc1)C(=N)N [Blastimidine P2] | > 256 µg/mL | >8.0 | 32 µg/mL (≈ 49.6 µM) | >32 | 8 µg/mL (≈ 12.4 µM) | >12 | 16 to 32 µg/mL (≈ 24.8 to 49.6 µM) | >4.0 | 64 µg/mL (≈ 99.3 µM) | >16 | 16 µg/mL (≈ 24.8 µM) | 128 µg/mL (≈ 199 µM) | > 128 µg/mL | >32 | 8 µg/mL (≈ 12.4 µM) | > 128 µg/mL | >2.0 | 128 µg/mL (≈ 199 µM) | 128 µg/mL (≈ 199 µM) | >16 | Selectivity index (CC50/MIC) VRE NR-31909 [4]: >2.0; MIC [9]: 16 µg/mL (≈ 24.8 µM)
